Data: patent US12616701B2, “Solid state forms of Resmetirom” (ASSIA CHEMICAL INDUSTRIES LTD., priority 2020, dated 2026)
Counter-ions that a name gives are not always drawn.

Tests used:
[1] = Hygroscopicity of the crystalline form; type: physicochemical; settings: crystalline solid form
[2] = Polymorphic stability at relative humidity, room temperature; type: physicochemical; settings: for at least 7 days

Structure (SMILES)	hygroscopicity [1]	relative humidity up to which the form is polymorphically stable [2]
CC(C)c1cc(Oc2c(Cl)cc(-n3nc(C#N)c(=O)[nH]c3=O)cc2Cl)n[nH]c1=O [Form RC1-A, Resmetirom:nicotinamide]	non-hygroscopic	up to 80 % relative humidity
CC(C)c1cc(Oc2c(Cl)cc(-n3nc(C#N)c(=O)[nH]c3=O)cc2Cl)n[nH]c1=O [Form R3-A, Resmetirom:L-proline]	non-hygroscopic	up to 80 % relative humidity
CC(C)c1cc(Oc2c(Cl)cc(-n3nc(C#N)c(=O)[nH]c3=O)cc2Cl)n[nH]c1=O [Form RC2-B, Resmetirom:caffeine]	non-hygroscopic	up to 80 % relative humidity
CC(C)c1cc(Oc2c(Cl)cc(-n3nc(C#N)c(=O)[nH]c3=O)cc2Cl)n[nH]c1=O [Form RC2-A, Resmetirom:caffeine]	non-hygroscopic	up to 100 % relative humidity
CC(C)c1cc(Oc2c(Cl)cc(-n3nc(C#N)c(=O)[nH]c3=O)cc2Cl)n[nH]c1=O [Form 20, 2-[3,5-dichloro-4-[(6-oxo-5-propan-2-yl-1H-pyridazin-3-yl)oxy]phenyl]-3,5-dioxo-1,2,4-triazine-6-carbonitrile]	non-hygroscopic	up to 80 % relative humidity
CC(C)c1cc(Oc2c(Cl)cc(-n3nc(C#N)c(=O)[nH]c3=O)cc2Cl)n[nH]c1=O [Form R2-A, Resmetirom piperazine salt]	non-hygroscopic	up to 100 % relative humidity
